We go through 6 molecules from patent US7728032B2, “Phenoxymethylalkyne inhibitors of LTA4H for treating inflammation” (deCODE genetics ehf, priority 2006, dated 2010).

Counter-ions that a name gives are not always drawn. Like-named read-outs stand apart in the source and are kept apart here.

A word on the IC50: it is the concentration needed to halve the response being measured.

Experiment [1] concerns the target T1, recombinant human LTA4 hydrolase (Homo sapiens, UniProt P09960).
T1 construct: A human LTA4 hydrolase full-length cDNA clone (NM_000895) was purchased from OriGene Technologies; 6xHis (own knowledge: pDEST17 adds an N-terminal His tag); made in house; host or cells: Escherichia coli BL21-AI
T1 sequence (P09960 1-611): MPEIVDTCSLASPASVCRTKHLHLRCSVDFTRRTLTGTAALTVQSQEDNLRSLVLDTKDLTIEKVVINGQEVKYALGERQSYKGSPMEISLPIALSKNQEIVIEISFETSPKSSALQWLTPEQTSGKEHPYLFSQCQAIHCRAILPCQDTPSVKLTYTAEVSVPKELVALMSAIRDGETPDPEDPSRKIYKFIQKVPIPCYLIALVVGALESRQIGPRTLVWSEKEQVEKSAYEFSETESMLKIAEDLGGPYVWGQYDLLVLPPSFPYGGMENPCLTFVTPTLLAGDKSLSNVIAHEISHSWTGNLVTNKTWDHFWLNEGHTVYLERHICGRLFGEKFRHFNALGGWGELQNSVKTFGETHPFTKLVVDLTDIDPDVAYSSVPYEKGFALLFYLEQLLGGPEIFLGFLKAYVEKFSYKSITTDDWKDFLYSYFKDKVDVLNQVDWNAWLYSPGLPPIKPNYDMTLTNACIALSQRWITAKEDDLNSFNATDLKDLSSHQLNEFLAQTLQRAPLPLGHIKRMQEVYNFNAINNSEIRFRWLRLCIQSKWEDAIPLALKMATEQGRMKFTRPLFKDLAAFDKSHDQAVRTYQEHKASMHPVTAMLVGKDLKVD
Nature of the experiment: In vitro assay testing inhibitory activity against purified recombinant human LTA4 hydrolase. As to conditions: 200 nM recombinant enzyme, 2 μM LTA4, 120 sec, LTB4 formed measured by LC-MS/MS. The class given is biochemical. An excerpt:
(1) In vitro assay testing inhibitory activity against purified recombinant human LTA4 hydroase:
A human LTA4 hydrolase full-length cDNA clone (NM_000895) was purchased from OriGene Technologies (Rockville, Md.). The gene was amplified by polymerase chain reaction and transferred via pDONR201 into the bacterial expression vector pDEST17 by recombination (both plasmids from Invitrogen, Carlsbad, Calif.). The resulting construct was transformed into Escherichia coli BL21-AI (Invitrogen), and expression was induced by chemical induction with arabinose. The recombinant enzyme was purified by chromatography on a FPLC system (Amersham Biosciences, Uppsala, Sweden) using immobilized metal affinity chromatography (Ni-NTA Superflow, Qiagen, Hilden, Germany) and anion exchange chromatography (MonoQ HR 10/10, Amersham Biosciences).
The compounds of the invention were incubated in a series of dilutions with 200 nM of recombinant enzyme in assay buffer (100 mM Tris-HCl, 100 mM NaCl, 5 mg/ml fatty-acid free BSA, 10% DMSO, pH 8.0) for 10 min at room temperature to allow binding between LTA4 hydrolase and the inhibitors. LTA4 was prepared by alkaline hydrolysis of LTA4 methyl ester (Biomol, Plymouth Meeting, Pa., or Cayman Chemicals, Ann Arbor, Mich.). A solution of 10 μg of the ester was dried under a nitrogen stream and redissolved in 60 μl of a solution of 80% aceton and 20% 0.25 M NaOH. After incubation for 40 min at room temperature the resulting approximately 500 μM tock of LTA4 was kept at −80° C. for no more than a few days prior to use.
Immediately before the assay, LTA4 was diluted to a concentration of 10 μM in assay buffer (without DMSO) and added to the reaction mixture to a final concentration of 2 μM to initiate the enzyme reaction. After incubation for 120 sec at room temperature, the reaction was stopped by adding 2 volumes of chilled quenching buffer, containing acetonitril with 1% acetic acid and 225 nM LTB4-d4 (Biomol). The samples were then kept at 4° C. over night to complete protein precipitation and centrifuged for 15 min at 1800 g. LTB4 formed was measured by LC-MS/MS using LTB4-d4 as an internal standard and an external LTB4 standard (Biomol) as reference. Briefly, the analyte was separated from LTB4 isomers formed by spontaneous hydrolysis of LTA4 using isocratic elution (modified protocol from Mueller et al. (1996), J. Biol. Chem. 271, 24345-24348) on a HPLC system (Waters, Milford, Mass.) and analyzed on a tandem quadrupole mass spectrometer (Waters). MRM transitions followed on 2 channels were 335.2>195.3 (LTB4) and 339.2>197.3 (LTB4-d4). Based on the amounts of LTB4 found at each inhibitor concentration, a dose-response curve was fitted to the data and an IC50 value was calculated.

The test system of experiment [2] is ionophore-induced LTB4 production. As to conditions: oral administration, rat peritoneum in vivo; cited from earlier work.
Experiment [3] has the same test system. As to conditions: oral administration, mouse blood ex vivo; cited from earlier work.
Experiment [4] concerns spontaneous colitis. As to conditions: eight weeks of treatment, primate model; cited from earlier work.

As for `C#CCOc1ccc(OC[C@H]2CCCN2)cc1` [Example 1, (R)-2-(4-Prop-2-ynyloxy-phenoxymethyl)-pyrrolidine hydrochloride], in experiment [1], the IC50 is 5 to 20 µM.

With `C(#Cc1ccccc1)COc1ccc(OC[C@H]2CCCN2)cc1` [Example 2, 2-[4-(3-Phenyl-prop-2-ynyloxy)-phenoxymethyl]-pyrrolidine], the IC50 in experiment [1] was below 5 µM.

On to `Brc1ccc(C#CCOc2ccc(OC[C@H]3CCCN3)cc2)cc1` [Example 4, 2-{4-[3-(4-Bromo-phenyl)-prop-2-ynyloxy]-phenoxymethyl}-pyrrolidine hydrochloride], for which, in experiment [1], the IC50 was 5 to 20 µM.

With `CC#CCOc1ccc(OCCN2CCCCC2)cc1` [Example 6, 1-[2-(4-But-2-ynyloxy-phenoxy)-ethyl]-piperidine], the concentration for half-maximal inhibition (IC50) in experiment [1] fell in the range of 5 to 20 µM.

On to `CN(CCCOc1ccc(Cc2ccccc2)cc1)CCC(=O)O.Cl` [SC57461], for which the “inhibition of ionophore-induced LTB4 production” value in experiment [2] and in experiment [3] was “inhibition” each time. Moreover, in experiment [4], the colitis symptoms entry is recorded as “significantly improved”.

Regarding “(4-{3-[4-(Pyrrolidin-2-ylmethoxy)-phenoxy]-prop-1-ynyl}-phenyl)-methanol [Example 3]”, in experiment [1], the IC50 was below 5 µM.
